Source: patent US20150030989A1, “Handheld Device for Delivering Photodynamic Therapy” (The Forsyth Institute, priority 2012, published 2015)
Where two headings read alike, the source gives them in different places.

Experiments:
osteoblasts [1] = conditions: for reduction of viability, MB alone: human, 50 μg/mL
Description: (§1) In this study, the viability of human gingival fibroblasts and osteoblasts in vitro was assessed after exposure to methylene blue (MB) and red light with parameters similar to those that may be applied in a clinical setting. […] Both cell types were sensitized with 50 μg/mL methylene blue followed by exposure to red light at 665 nm for 5 minutes with an irradiance of 10, 20, and 40 mW/cm^2. The power densities were 10, 20, and 40 mW/cm^2, corresponding with energy fluencies of 3, 6, and 12 J/cm^2, respectively. In previous studies, light with a power density of 100 mW/cm^2 was used for killing endodontic pathogens within infected root canal specimens in vitro. A portion of that light propagates in dentin and escapes from the tooth. The power density of light escaping from the root specimen ranges from 5 to 10 mW/cm^2 depending on the morphology of the root canal system. In the present study, up to fourfold greater power densities were used.
(§2) After photodynamic therapy (PDT), cell viability and mitochondrial activity were evaluated by the neutral red and MTT assay, respectively. The assessment of PDT-induced apoptosis was investigated by western blot analysis using cleaved poly(ADPribose) polymerase-specific antibodies. […] Osteoblasts (A) and fibroblasts (B) were treated with MB only (lane MB+), light only (lane L+), or light and MB (lane L+MB+). Control cultures were left untreated (lane −) or treated with 200 μmol/L staurosporine (lane +). Twenty-four hours after treatment, cultures were stopped and analyzed by western blot using cleaved PARP− and b-actin-specific antibodies.

[2] = system: Enterococcus faecalis biofilms; assay: PDT on E. faecalis biofilms in experimentally infected root canals of extracted teeth; assay type: cell-based; conditions: MB 25 μg/ml in combination with red light 222 J/cm^2
Description: The effects of PDT were investigated on endodontic pathogens in planktonic phase as well as on Enterococcus faecalis biofilms in experimentally infected root canals of extracted teeth. Strains of Porphyromonas gingivalis (ATCC 33277), P. intermedia (ATCC 25611), Fusobacterium nucleatum nucleatum (ATCC 25586), Peptostreptocococcus micros (ATCC 33270), Porphyromonas endodontalis (ATCC 35406), and E. faecalis (ATCC 29212) were sensitized with methylene blue (MB) (25 μg/ml) for 5 minutes followed by exposure to res light of 665 nm with an energy fluence of 30 J/cm^2. […] In Table 1, Surviving species are expressed as percentage-of-controls receiving neither methylene blue nor light. Each value is the mean of values obtained from 2 to 4 experiments (±standard error). […] Light was uniformly delivered at 360 degrees in the root canal system with a flexible optical fiber with cylindrical diffusers and a diameter of 500 μm.

[3] = system: Peptostreptocococcus micros (ATCC 33270); assay: PDT on endodontic pathogens in planktonic phase: P. micros; assay type: cell-based; conditions: methylene blue 25 μg/ml, 5 minutes, mean ± standard error; for Surviving species, PDT: red light 665 nm 30 J/cm^2
Description: (§3) The effects of PDT were investigated on endodontic pathogens in planktonic phase as well as on Enterococcus faecalis biofilms in experimentally infected root canals of extracted teeth. Strains of Porphyromonas gingivalis (ATCC 33277), P. intermedia (ATCC 25611), Fusobacterium nucleatum nucleatum (ATCC 25586), Peptostreptocococcus micros (ATCC 33270), Porphyromonas endodontalis (ATCC 35406), and E. faecalis (ATCC 29212) were sensitized with methylene blue (MB) (25 μg/ml) for 5 minutes followed by exposure to res light of 665 nm with an energy fluence of 30 J/cm^2. […] In Table 1, Surviving species are expressed as percentage-of-controls receiving neither methylene blue nor light. Each value is the mean of values obtained from 2 to 4 experiments (±standard error). The same concentration of MB in combination with red light (222 J/cm^2) was able to eliminate 97% of E. faecalis biofilm bacteria in root canals. Light was uniformly delivered at 360 degrees in the root canal system with a flexible optical fiber with cylindrical diffusers and a diameter of 500 μm. Table 1 presents the survival of endodontic bacteria after their incubation only with methylene blue (25 μg/ml) or methylene blue (25 μg/ml) and red light (30 J/cm^2): […]

E. faecalis (ATCC 29212) [4] = assay: PDT on endodontic pathogens in planktonic phase: E. faecalis; assay type: cell-based, Enterococcus faecalis
Description: as §3

[5] = system: human gingival fibroblasts; assay: Cell viability, neutral red assay, fibroblasts; assay type: cell-based; conditions: 50 μg/mL MB, no light, 0 and 24 hours
Description: as §1
After photodynamic therapy (PDT), cell viability and mitochondrial activity were evaluated by the neutral red and MTT assay, respectively. The assessment of PDT-induced apoptosis was investigated by western blot analysis using cleaved poly(ADPribose) polymerase-specific antibodies. […] Twenty-four hours after treatment, cultures were stopped and analyzed by western blot using cleaved PARP− and b-actin-specific antibodies.

[6] = system: Porphyromonas gingivalis (ATCC 33277); assay: PDT on endodontic pathogens in planktonic phase: P. gingivalis; assay type: cell-based; conditions: methylene blue 25 μg/ml, 5 minutes; for Surviving species, PDT: red light 665 nm 30 J/cm^2
Description: as §3

[7] = system: Fusobacterium nucleatum nucleatum (ATCC 25586); assay: PDT on endodontic pathogens in planktonic phase: F. nuc. nuc.; assay type: cell-based; conditions: methylene blue 25 μg/ml, 5 minutes, mean ± standard error; for Surviving species, PDT: red light 665 nm 30 J/cm^2
Description: as §3

[8] = system: P. intermedia (ATCC 25611); assay: PDT on endodontic pathogens in planktonic phase: P. intermedia; assay type: cell-based, Prevotella intermedia; conditions: methylene blue 25 μg/ml, 5 minutes; for Surviving species, PDT: red light 665 nm 30 J/cm^2
Description: as §3

[9] = system: Porphyromonas endodontalis (ATCC 35406); assay: PDT on endodontic pathogens in planktonic phase: P. endodontalis; assay type: cell-based; conditions: methylene blue 25 μg/ml, 5 minutes; for Surviving species, PDT: red light 665 nm 30 J/cm^2
Description: as §3

osteoblasts [10] = system: osteoblasts
Description: (§4) FIG. 7 presents two bar graphs on the growth of methylene blue (MB)-sensitized gingival fibroblasts and osteoblasts as determined by the MTT assay after their exposure to red light.
as §1, §2

[11] = system: human gingival fibroblasts; conditions: 24 h, 50 μg/mL
Description: as §4, §1, §2

[12] = system: human gingival fibroblasts; assay: PDT-induced apoptosis, western blot for cleaved PARP, fibroblasts; assay type: cell-based; conditions: twenty-four hours after treatment
Description: as §2

[13] = system: multispecies root canal biofilms comprising Actinomyces israelii, Fusobacterium nucleatum subspecies nucleatum, Porphyromonas gingivalis, and Prevotella …; assay: PDT on multispecies root canal biofilms in extracted human teeth, CFU assay; assay type: cell-based; conditions: MB 25 μg/mL 10 minutes, red light 665 nm 30 J/cm^2
Description: The photodynamic effects of methylene blue (MB) on multispecies root canal biofilms comprising Actinomyces israelii, Fusobacterium nucleatum subspecies nucleatum, Porphyromonas gingivalis, and Prevotella intermedia in experimentally infected root canals of extracted human teeth were investigated in vitro.
Root canal systems were incubated with MB (25 μg/mL) for 10 minutes followed by exposure to red light at 665 nm with an energy fluence of 30 J/cm^2. Light was delivered from a diode laser via a 250-μm diameter polymethyl methacrylate optical fiber that uniformly distributed light over 360 degrees (FIG. 2). […] In FIG. 5, each bar is the mean Logic, CFU levels (+standard error).

osteoblasts [14] = assay: PDT-induced apoptosis, western blot for cleaved PARP, osteoblasts; assay type: cell-based, human; conditions: twenty-four hours after treatment
Description: as §2

E. faecalis (ATCC 29212) [15] = system: E. faecalis (ATCC 29212)

## CN(C)c1ccc2nc3ccc(=[N+](C)C)cc-3sc2c1 [methylene blue]
Osteoblasts [1]; 0 h
  reduction of viability, MB alone: 9.4%
Osteoblasts [1]; 24 h
  reduction of viability, MB alone: 14.6%
[2]
  E. faecalis biofilm bacteria in root canals eliminated: 97%
[3]; no light
  Surviving species, only methylene blue: 21 ± 10.6 percentage-of-controls
[3]
  Surviving species, PDT: 0 percentage-of-controls
[3]; listed as MB
  Surviving species, PDT: fully eliminated
E. faecalis (ATCC 29212) [4]; methylene blue 25 μg/ml, 5 minutes, no light, mean ± standard error
  Surviving species, only methylene blue: 94.5 ± 17.6 percentage-of-controls
E. faecalis (ATCC 29212) [4]; methylene blue 25 μg/ml, 5 minutes, red light 665 nm 30 J/cm^2, mean ± standard error
  Surviving species, PDT: 47 ± 12.1 percentage-of-controls
E. faecalis (ATCC 29212) [4]; planktonic, MB 25 μg/ml 5 minutes, light 665 nm 30 J/cm^2
  killing: 53%
[5]
  effect of MB alone on viability: no effect
[6]; no light, mean ± standard error
  Surviving species, only methylene blue: 6.7 ± 0.1 percentage-of-controls
[6]
  Surviving species, PDT: 0 percentage-of-controls
[6]; listed as MB
  Surviving species, PDT: fully eliminated
[7]; no light
  Surviving species, only methylene blue: 5.5 ± 0.4 percentage-of-controls
[7]
  Surviving species, PDT: 0 percentage-of-controls
[7]; listed as MB
  Surviving species, PDT: fully eliminated
[8]; no light
  Surviving species, only methylene blue: 0 percentage-of-controls
[8]
  Surviving species, PDT: 0 percentage-of-controls
[8]; listed as MB
  Surviving species, PDT: fully eliminated
[9]; no light
  Surviving species, only methylene blue: 0 percentage-of-controls
[9]
  Surviving species, PDT: 0 percentage-of-controls
[9]; listed as MB
  Surviving species, PDT: fully eliminated
Osteoblasts [10]; human, 0 h, 50 μg/mL
  reduction of mitochondrial activity, MB alone: 3.1%
Osteoblasts [10]; human, 24 h, 50 μg/mL
  reduction of mitochondrial activity, L20+MB+: approximately 34%
  reduction of mitochondrial activity, L40+MB+: approximately 34%
  reduction of mitochondrial activity, MB alone: 13.5%
[11]
  reduction of mitochondrial activity, L40+MB+: 18.5%
[12]; lane L+MB+
  PARP cleavage, light and MB: Neither treatment resulted in PARP cleavage
[12]; lane MB+
  PARP cleavage, MB only: Neither treatment resulted in PARP cleavage
[13]
  reduction of colony-forming unit counts (CFU), PDT: up to 80%
[13]; FIG. 5
  mean CFU levels, combination of light and MB versus control or MB alone: significantly lower than either control or MB alone
Osteoblasts [14]; lane L+MB+
  PARP cleavage, light and MB: Neither treatment resulted in PARP cleavage
Osteoblasts [14]; lane MB+
  PARP cleavage, MB only: Neither treatment resulted in PARP cleavage
E. faecalis (ATCC 29212) [15]; 6.25 μg/ml MB 5 minutes, light 665 nm 60 J/cm^2
  reduction of E. faecalis viability, PDT: 77.5%
E. faecalis (ATCC 29212) [15]; 6.25 μg/ml MB, no light
  reduction of bacterial viability, MB alone: 19.5%

## OCl [sodium hypochlorite]
Osteoblasts [1]
  effect of sodium hypochlorite on osteoblasts, neutral red assay: completely eliminated cells
Osteoblasts [10]
  effect of sodium hypochlorite on osteoblasts, MTT assay: completely eliminated cells
